{"source": "paper PMC12644462", "about": "“A novel radiosensitizer α-sulfoquinovosyl-acylpropanediol (SQAP) inhibits DNA repair pathways and sensitize cells to cancer chemotherapeutic agents” (Scientific Reports, 2025)", "key": {"[1]": {"test_system": "HR activity in HeLa DR-GFP cells", "experiment": "DR-GFP DNA repair reporter assay", "format": "cell-based, human", "conditions": "30 µM SQAP, p < 0.05", "procedure": "(§1) HR and NHEJ activities were assessed using the DR-GFP reporter system[25] and the EJ5-GFP reporter system, respectively. pDRGFP and pCBASceI were gifts from Dr. Maria Jasin (Addgene plasmid #26475 and #26477). pimEJ5GFP was a gift from Dr. Jeremy Stark (Addgene plasmid # 44026). The assays were performed as previously described. Briefly, HeLa cells expressing DR-GFP, or EJ5-GFP were transfected with a plasmid encoding an I-SceI endonuclease using FuGENE HD transfection reagent (Promega, Madison, WI, USA). HR and NHEJ frequencies were analyzed by counting GFP positive cells with a FACS Lyric flow cytometer (BD Biosciences, San Jose, CA, USA) at 48 h post-transfection. Drug treatment was performed 3 h after transfection, and medium was replaced with the drug until FACS analysis. Relative HR and NHEJ efficiencies were calculated by normalizing to control cell values. A total of 50,000 cells were counted for each condition."}, "[2]": {"test_system": "NHEJ activity in HeLa EJ5-GFP cells", "experiment": "EJ5-GFP DNA repair reporter assay", "format": "cell-based, human", "conditions": "30 µM SQAP, p < 0.05", "procedure": "as §1"}, "[3]": {"test_system": "CHO wild type, EM9, xrs5 and 51D1 cells", "experiment": "Sister chromatid exchange assay", "format": "cell-based, Chinese hamster", "procedure": "CHO cells were synchronized into G1 phase using mitotic shake-off method. Cells in the G1 phase were irradiated, and 10 µM of BrdU was added. After 20 h, colcemid was added for 6 h to arrest cells in metaphase. Collected cells were treated with hypotonic KCl solution and fixed using methanol: acetic acid (3:1) as the standard method. Metaphase chromosome spread was prepared on glass slides and treated with 5 µg/mL of Hoechst 33258 solution for 15 min and exposed to UVB for 15 min and treated with 2X SSC solution at 80 °C for 15 min. Cells were stained with 5% Giemsa stain solution. At least 50 metaphase spreads were analyzed for SCE scoring per experiment."}, "CHO cells": {"test_system": "CHO cells", "experiment": "G2 premature chromosome condensation (PCC) assay", "format": "cell-based, Chinese hamster", "procedure": "Following treatment with SQAP for 1 h, exponentially growing CHO cells were irradiated and treated with 50 nM of Calyculin A (Sigma-Aldrich) for 30 min as previously described. Cells were then fixed and stained as chromosome aberration analysis. Under a Zeiss Axioskop microscope, chromatid gaps, breaks, iso-breaks and exchanges were all scored as G2-PCC chromatid breaks. At least 50 PCC-spreads were scored in three independent experiments."}}}
{"smiles": "CCCCCCCCCCCCCCCCCC(=O)OCCCO[C@H]1O[C@H](CS(=O)(=O)O)[C@@H](O)[C@H](O)[C@H]1O", "note": "[SQAP, Alpha-sulfoquinovosylacyl-1,3-propanediol]", "values": [{"measurement": "HR activity", "setting": "[1]", "value": "significantly reduced"}, {"measurement": "NHEJ activity", "setting": "[2]", "value": "significantly reduced"}, {"measurement": "spontaneous sister chromatid exchange formation", "setting": "[3]; 51D1 (rad51d mutant, HR deficient), non toxic SQAP concentrations", "value": "no reduction"}, {"measurement": "spontaneous sister chromatid exchange formation", "setting": "[3]; CHO wild type, 5 to 20 µM SQAP, significant from 10 µM", "value": "reduced"}, {"measurement": "spontaneous sister chromatid exchange formation", "setting": "[3]; EM9 (XRCC1 mutant), 5 to 20 µM SQAP, significant from 10 µM", "value": "reduced"}, {"measurement": "spontaneous sister chromatid exchange formation", "setting": "[3]; xrs5 (Ku80 mutant), 5 to 20 µM SQAP, significant from 10 µM", "value": "reduced"}, {"measurement": "residual PCC levels", "setting": "CHO cells; 1 Gy, after 2 h, with SQAP", "value": "~4.8"}, {"measurement": "number of G2-PCC chromatid breaks", "setting": "CHO cells; immediately after 1 Gy irradiation, SQAP-treated", "value": "approximately 10"}]}
